Laboratory results from ChEMBL document CHEMBL1255394, “Antimicrobial susceptibilities of multidrug-resistant Campylobacter jejuni and C. coli strains: in vitro activities of 20 antimicrobial agents” (2010).
In brackets after ≈: the same amount, converted by molar mass.

Assays:
Format in all cases: functional
Campylobacter jejuni = assay: Antibacterial activity against Campylobacter jejuni assessed as resistant isolates by disk diffusion method
Campylobacter sp. [1] = assay: Antibacterial activity against Campylobacter sp. assessed as resistance breakpoint by CLSI method
Campylobacter sp. [2] = assay: Antibacterial activity against erythromycin susceptible Campylobacter sp. by agar plate dilution method
Campylobacter sp. [3] = assay: Antibacterial activity against erythromycin resistant Campylobacter sp. assessed as resistance breakpoint by CLSI method
Campylobacter sp. [4] = assay: Antibacterial activity against erythromycin susceptible Campylobacter sp. assessed as resistance breakpoint by CLSI method
Campylobacter sp. [5] = assay: Antibacterial activity against erythromycin resistant Campylobacter sp. by agar plate dilution method
Campylobacter coli = assay: Antibacterial activity against Campylobacter coli assessed as resistant isolates by disk diffusion method
Campylobacter sp. [6] = assay: Antimicrobial activity against erythromycin resistant Campylobacter sp. assessed as clear zone of inhibition by disk diffusion method
Campylobacter sp. [7] = assay: Antimicrobial activity against erythromycin susceptible Campylobacter sp. assessed as clear zone of inhibition by disk diffusion method
Campylobacter sp. [8] = assay: Antibacterial activity against erythromycin resistant Campylobacter sp. after 48 hrs by Etest method
Campylobacter sp. [9] = assay: Antibacterial activity against Campylobacter sp. assessed as resistance breakpoint by EUCAST method
Campylobacter sp. [10] = assay: Antibacterial activity against erythromycin susceptible Campylobacter sp. after 48 hrs by Etest method

Compound	Activity (Campylobacter jejuni) [%]	Activity (Campylobacter sp. [1]) [µg/mL]	MIC50 (Campylobacter sp. [2]) [µg/mL]	MIC90 (Campylobacter sp. [2]) [µg/mL]	Activity (Campylobacter sp. [3]) [%]	Activity (Campylobacter sp. [4]) [%]	MIC50 (Campylobacter sp. [5]) [µg/mL]	MIC90 (Campylobacter sp. [5]) [µg/mL]	Activity (Campylobacter coli) [%]	inhibition zone (IZ) (Campylobacter sp. [6])	inhibition zone (IZ) (Campylobacter sp. [7]) [mm]	MIC50 (Campylobacter sp. [8]) [µg/mL]	MIC90 (Campylobacter sp. [8]) [µg/mL]	Activity (Campylobacter sp. [9]) [µg/mL]	MIC50 (Campylobacter sp. [10]) [µg/mL]	MIC90 (Campylobacter sp. [10]) [µg/mL]
O=C(N[C@H](CO)[C@H](O)c1ccc([N+](=O)[O-])cc1)C(Cl)Cl [CHLORAMPHENICOL]	0.5	32	0.125 (≈ 0.387 µM)	8 (≈ 24.8 µM)	0	0.5	4 (≈ 12.4 µM)	16 (≈ 49.5 µM)	0	–	–	–	–	–	–	–
COc1c(N2C[C@@H]3CCCN[C@@H]3C2)c(F)cc2c(=O)c(C(=O)O)cn(C3CC3)c12 [MOXIFLOXACIN]	–	–	≤ 0.03	0.125 (≈ 0.311 µM)	–	–	2 (≈ 4.98 µM)	16 (≈ 39.9 µM)	–	–	–	–	–	–	–	–
N[C@@H]1CN(c2c(F)cc3c(=O)c(C(=O)O)cn([C@@H]4C[C@@H]4F)c3c2Cl)CC12CC2 [SITAFLOXACIN ANHYDROUS]	–	–	0.5 (≈ 1.22 µM)	1 (≈ 2.44 µM)	–	–	0.125 (≈ 0.305 µM)	0.5 (≈ 1.22 µM)	–	–	–	–	–	–	–	–
C[C@@H](O)[C@H]1C(=O)N2C(C(=O)O)=C(S[C@@H]3CN[C@H](C(=O)N(C)C)C3)[C@H](C)[C@H]12 [MEROPENEM]	0	16	4 (≈ 10.4 µM)	64 (≈ 167 µM)	0	0	≤ 0.03	0.25 (≈ 0.652 µM)	0	–	–	–	–	–	–	–
C[C@H]1COc2c(N3CCN(C)CC3)c(F)cc3c(=O)c(C(=O)O)cn1c23.C[C@H]1COc2c(N3CCN(C)CC3)c(F)cc3c(=O)c(C(=O)O)cn1c23.O [LEVOFLOXACIN]	34.5	8	1	> 64	78.9	33.6	8	–	72.2	–	–	–	–	–	–	–
CC1(C)S[C@@H]2[C@H](NC(=O)[C@H](N)c3ccccc3)C(=O)N2[C@H]1C(=O)O [AMPICILLIN]	18.2	32	0.5 (≈ 1.43 µM)	32 (≈ 91.6 µM)	36.8	16.6	8 (≈ 22.9 µM)	128 (≈ 366 µM)	22.2	–	–	–	–	–	–	–
C[C@@H](O)[C@H]1C(=O)N2C(C(=O)O)=C(SCCNC=N)C[C@H]12 [IMIPENEM ANHYDROUS]	0	16	0.016 (≈ 0.0534 µM)	0.25 (≈ 0.835 µM)	0	0	0.25 (≈ 0.835 µM)	0.5 (≈ 1.67 µM)	0	–	–	–	–	–	–	–
CCn1cc(C(=O)O)c(=O)c2ccc(C)nc21 [NALIDIXIC ACID]	41.4	32	2 (≈ 8.61 µM)	8 (≈ 34.4 µM)	94.7	40.1	128 (≈ 551 µM)	128 (≈ 551 µM)	83.3	–	–	–	–	–	–	–
CC[C@H]1OC(=O)[C@H](C)[C@@H](O[C@H]2C[C@@](C)(OC)[C@@H](O)[C@H](C)O2)[C@H](C)[C@@H](O[C@@H]2O[C@H](C)C[C@H](N(C)C)[C@H]2O)[C@](C)(O)C[C@@H](C)CN(C)[C@H](C)[C@@H](O)[C@]1(C)O [AZITHROMYCIN]	5	4	0.25 (≈ 0.334 µM)	0.5 (≈ 0.668 µM)	89.5	0.5	> 128	> 128	38.9	–	–	–	–	–	–	–
CC[C@H]1OC(=O)[C@H](C)[C@@H](O[C@H]2C[C@@](C)(OC)[C@@H](O)[C@H](C)O2)[C@H](C)[C@@H](O[C@@H]2O[C@H](C)C[C@H](N(C)C)[C@H]2O)[C@](C)(O)C[C@@H](C)C(=O)[C@H](C)[C@@H](O)[C@]1(C)O [ERYTHROMYCIN]	4.5	16	2 (≈ 2.73 µM)	4 (≈ 5.45 µM)	100	0	> 128	> 128	50	<=23 mm	>23	–	–	–	–	–
CCn1cc(C(=O)O)c(=O)c2cc(F)c(N3CCNCC3)cc21 [NORFLOXACIN]	40.9	16	8 (≈ 25.1 µM)	256 (≈ 802 µM)	94.7	39.6	64 (≈ 200 µM)	> 64	83.3	–	–	–	–	–	–	–
CC1COc2c(N3CCN(C)CC3)c(F)cc3c(=O)c(C(=O)O)cn1c23 (centres undefined) [OFLOXACIN]	40.9	8	0.25 (≈ 0.692 µM)	32 (≈ 88.6 µM)	84.2	40.6	16 (≈ 44.3 µM)	64 (≈ 177 µM)	83.3	–	–	–	–	–	–	–
CN(C)c1cc(NC(=O)CNC(C)(C)C)c(O)c2c1C[C@H]1C[C@H]3[C@H](N(C)C)C(O)=C(C(N)=O)C(=O)[C@@]3(O)C(O)=C1C2=O [TIGECYCLINE]	0	0.5	–	–	0	0	–	–	0	–	–	0.008 (≈ 0.0137 µM)	0.023 (≈ 0.0393 µM)	>0.5	0.008 (≈ 0.0137 µM)	0.032 (≈ 0.0546 µM)
CC[C@H]1OC(=O)[C@H](C)C(=O)[C@H](C)[C@@H](O[C@@H]2O[C@H](C)C[C@H](N(C)C)[C@H]2O)[C@](C)(OC)C[C@@H](C)C(=O)[C@H](C)[C@H]2N(CCCCn3cnc(-c4cccnc4)c3)C(=O)O[C@]12C [TELITHROMYCIN]	–	–	0.064 (≈ 0.0788 µM)	0.25 (≈ 0.308 µM)	–	–	32 (≈ 39.4 µM)	> 128	–	–	–	–	–	–	–	–
CC[C@H]1OC(=O)[C@H](C)[C@@H](O[C@H]2C[C@@](C)(OC)[C@@H](O)[C@H](C)O2)[C@H](C)[C@@H](O[C@@H]2O[C@H](C)C[C@H](N(C)C)[C@H]2O)[C@](C)(OC)C[C@@H](C)C(=O)[C@H](C)[C@@H](O)[C@]1(C)O [CLARITHROMYCIN]	–	–	0.25 (≈ 0.334 µM)	128 (≈ 171 µM)	–	–	> 128	> 128	–	–	–	–	–	–	–	–
GENTAMICIN	0.9	16	4	64	0	0.9	0.5	0.5	0	–	–	–	–	–	–	–
O=C(O)c1cn(C2CC2)c2cc(N3CCNCC3)c(F)cc2c1=O [CIPROFLOXACIN]	42.4	–	0.5 (≈ 1.51 µM)	1 (≈ 3.02 µM)	–	–	16 (≈ 48.3 µM)	> 32	–	–	–	–	–	–	–	–
CCC[C@@H]1C[C@@H](C(=O)N[C@@H]([C@H]2O[C@H](SC)[C@H](O)[C@@H](O)[C@H]2O)[C@H](C)Cl)N(C)C1 [CLINDAMYCIN]	5	8	2 (≈ 4.71 µM)	4 (≈ 9.41 µM)	89.5	1.4	64 (≈ 151 µM)	64 (≈ 151 µM)	50	–	–	–	–	–	–	–
CN(C)[C@@H]1C(O)=C(C(N)=O)C(=O)[C@@]2(O)C(O)=C3C(=O)c4c(O)cccc4[C@@](C)(O)[C@H]3C[C@@H]12 [TETRACYCLINE]	28.1	16	2 (≈ 4.5 µM)	8 (≈ 18 µM)	73.7	26.9	128 (≈ 288 µM)	> 128	66.7	–	–	–	–	–	–	–
